What was measured:
Format in all cases: in vivo, SD rats
[1] = system: rat models of pulmonary fibrosis; assay: Hydroxyproline content in lung tissues of rat models of pulmonary fibrosis; settings: lung tissue, bleomycin rats, after intragastric administration 5 mL/kg daily for 28 d
Procedure: (§1) 80 healthy SD rats including half males and half females with a body weight of 230 g±10 g were selected and divided into a blank group, a model group, embodiment group 1, embodiment group 2, embodiment group 3, comparative example group 1, comparative example group 2 and a positive control group, each group consisting of 10 rats. After the rats in each group were raised regularly for one week, each rat was intraperitoneally injected with 4% chloral hydrate at an injection dose of 10 ml/kg. The anesthetized rats were fixed in a supine position, and the rat necks were subjected to hair removal, disinfected with iodine alcohol, and longitudinally cut to expose tracheas. Except for the blank group, the rats in each group were pierced with an injector by 1 cm toward the heart through a gap between two tracheal cartilage rings, and after resistance-free withdrawal, bleomycin was injected into the trachea at a dose of 5 mg/kg. The blank group was injected with an equal volume of normal saline. Immediately after injection, the rats were rotated upright for 5 min to fully distribute the medicament in the lungs. Various layers of tissues were sutured, and local alcohol disinfection was performed. […]

[2] = system: rat models of pulmonary fibrosis; assay: Body weight in bleomycin-induced rat models of pulmonary fibrosis
Description: (§2) The present experimental example explored the influence of the plant extract solution prepared in Embodiments 1-3 on the body weight and lung coefficient of rats. The method was as follows:
80 healthy SD rats including half males and half females with a body weight of 230 g±10 g were selected and divided into a blank group, a model group, embodiment group 1, embodiment group 2, embodiment group 3, comparative example group 1, comparative example group 2 and a positive control group, each group consisting of 10 rats. After the rats in each group were raised regularly for one week, each rat was intraperitoneally injected with 4% chloral hydrate at an injection dose of 10 ml/kg. The anesthetized rats were fixed in a supine position, and the rat necks were subjected to hair removal, disinfected with iodine alcohol, and longitudinally cut to expose tracheas. Except for the blank group, the rats in each group were pierced with an injector by 1 cm toward the heart through a gap between two tracheal cartilage rings, and after resistance-free withdrawal, bleomycin was injected into the trachea at a dose of 5 mg/kg. The blank group was injected with an equal volume of normal saline. Immediately after injection, the rats were rotated upright for 5 min to fully distribute the medicament in the lungs. Various layers of tissues were sutured, and local alcohol disinfection was performed. 24 hours after modeling, the rats in the blank group and the model group were intragastrically administered with normal saline at a dose of 5 mL/kg every day, the rats in the positive control group were intragastrically administered with prednisone acetate at a dose of 5 mL/kg every day, and the rats in embodiment groups 1-3 and comparative example groups 1-2 were intragastrically administered with corresponding plant extract at a dose of 5 mL/kg continuously for 28 d. During this period, the rats in each group were raised according to a conventional method.
(1) Body weight: weighed the rats in each group on the day of intragastric administration, and weighed the rats in each group every 7 d.

[3] = system: rat models of pulmonary fibrosis; assay: Lung coefficient in bleomycin-induced rat models of pulmonary fibrosis; settings: wet lung weight/body weight x100%, bleomycin rats, intragastric 5 mL/kg daily
Description: as §2, §1

CC(=O)OCC(=O)[C@@]1(O)CC[C@H]2[C@@H]3CCC4=CC(=O)C=C[C@]4(C)[C@H]3C(=O)C[C@@]21C [Positive control group, prednisone acetate]
Hydroxyproline content [1]: 0.847 µg/mg | Initial weight ([2]; baseline, day of first intragastric administration, 24 h after bleomycin 5 mg/kg intratracheal): 228.1 g | Weight on the 7th day ([2]; bleomycin rats, intragastric 5 mL/kg daily, day 7): 253.2 g | Weight on the 14th day ([2]; bleomycin rats, intragastric 5 mL/kg daily, day 14): 260.7 g | Weight on the 21st day ([2]; bleomycin rats, intragastric 5 mL/kg daily, day 21): 267.6 g | Weight on the 28th day ([2]; bleomycin rats, intragastric 5 mL/kg daily, day 28): 273.2 g | Lung coefficient on the 14th day ([3]; day 14): 0.568% | Lung coefficient on the 28th day ([3]; day 28): 0.594%

Source: patent publication US20240350575A1, “PLANT EXTRACT FOR ALLEVATING PULMONARY FIBROSIS, AND PREPARATION METHOD AND USE THEREOF” (Guangdong GreenTech Lemon Innovations Co., Ltd., priority 2023, published 2024)
